{"source": "patent US20050130252A1", "about": "“Stabilized susceptibility tests of aerobic pathogens” (Wyeth Holdings Corporation, priority 2003, published 2005)", "test_system": "E. coli ATCC 25922", "test": "Broth microdilution MIC", "format": "cell-based, Escherichia coli", "conditions": "for MIC: Escherichia coli", "description": "The process for preparing susceptibility test medium are the following steps: • a. Preparing Mueller Hinton Broth II medium by adding 22 grams powdered media to 1.0 liter distilled water; • b. Autoclaving (121° C., 15 psi, 15 minutes) and cooling the medium; • c. Adding Oxyrase® up to about 10% final volume and keeping at 35-37° C. in an incubator for 30 minutes; • d. Adding about 50 μL to each well of a 96 well microtiter plate; • e. Weighing drug and adding broth to drug to bring up to about (standard 128 μg/ml); • f. Adding 50 μL of the drug to the first column of the titer plate; • g. Diluting by two-fold serial diluting across or down the plate. • h. Preparing a Prompt™ inoculum at 10^8 CFU/ml; • i. Diluting inoculum 1:100 in the broth at […] in 9.9 ml (1:100) is 10^6 colony forming units (CFU) forming the adjusted inoculum; • j. Adding 50 μL of the adjusted inoculum to the wells of the microtiter plate; • k. Incubating the plates at 35-37° C. for 18-22 hours; and • l. Reading, with the unaided eye, the MIC.\nThe in vitro activities of tigecycline and control antibiotics were determined by the broth microdilution method as recommended by the NCCLS. (National Committee for Clinical Laboratory Standards, 2003. Methods for Dilution Antimicrobial Susceptibility Tests for Bacteria That Grow Aerobically; Approved Standards: M7-A6, Sixth ed, vol. 23., National Committee for Clinical Laboratory Standards Wayne, Pa.) was used for the standard procedures. MBH with 5% lysed horse blood was used for testing S. pneumoniae and Haemophilus Test Medium was used for testing H. influenzae. Oxyrase® (Oxyrase Inc, Mansfield, Ohio) was used according to the manufacturer's instructions by adding 1 ml of Oxyrase® to 50 ml of media. Media age studies were performed by preparing MHB in multiple flasks, then storing the media under various conditions. MICs were usually performed in duplicate on each day of testing. Storage under anaerobic conditions was conducted in an anaerobic chamber (MACS MG 1000, Don Whitley Scientific LTD). The pH of the media was determined by pH meter (Corning 430). A comparison of the in vitro activity of tigecycline by agar and broth dilution methodolgies with and without Oxyrase® against clinical isolates is shown in Table 1.", "key": {"[1]": {"conditions": "Table 8, E. coli ATCC 25922, Mueller Hinton Broth + Oxyrase, n = 240"}, "[2]": {"conditions": "Table 8, E. coli ATCC 25922, Mueller Hinton Broth, n = 320"}, "[3]": {"conditions": "Table 9, E. coli ATCC 25922, Mueller Hinton Broth + Oxyrase, n = 33"}, "[4]": {"conditions": "Table 9, E. coli ATCC 25922, Mueller Hinton Broth, n = 90"}}, "note": "Read-outs that look alike come from different tables or passages of the source."}
{"smiles": "CN(C)c1cc(NC(=O)CNC(C)(C)C)c(O)c2c1C[C@H]1C[C@H]3[C@H](N(C)C)C(O)=C(C(N)=O)C(=O)[C@@]3(O)C(O)=C1C2=O", "note": "[Tigecycline, tigecycline]", "values": [{"measurement": "MIC", "setting": "ATCC25922, 0 h, E. coli ATCC 25922, Day 0, Pre-prepared media, room temperature, N = 6", "result": 0.12, "unit": "µg/mL"}, {"measurement": "MIC", "setting": "ATCC25922, 0 h, E. coli ATCC 25922, Day 0, media Fresh from Powder 2° C., N = 6", "result": "0.03 to 0.06", "unit": "µg/mL"}, {"measurement": "MIC", "setting": "ATCC25922, 0 h, E. coli ATCC 25922, Day 0, media Fresh from Powder, room temperature, N = 6", "result": 0.03, "unit": "µg/mL"}, {"measurement": "MIC", "setting": "ATCC25922, 24 h, E. coli ATCC 25922, Day 1, Pre-prepared media, room temperature, N = 6", "result": "0.12 to 0.25", "unit": "µg/mL"}, {"measurement": "MIC", "setting": "ATCC25922, 24 h, E. coli ATCC 25922, Day 1, media Fresh from Powder 2° C., N = 6", "result": "0.03 to 0.06", "unit": "µg/mL"}, {"measurement": "MIC", "setting": "ATCC25922, 24 h, E. coli ATCC 25922, Day 1, media Fresh from Powder, room temperature, N = 6", "result": 0.06, "unit": "µg/mL"}, {"measurement": "MIC", "setting": "ATCC25922, 168 h, E. coli ATCC 25922, Day 7, Pre-prepared media, room temperature, N = 6", "result": "0.12 to 0.25", "unit": "µg/mL"}, {"measurement": "MIC", "setting": "ATCC25922, 168 h, E. coli ATCC 25922, Day 7, media Fresh from Powder 2° C., N = 6", "result": 0.06, "unit": "µg/mL"}, {"measurement": "MIC", "setting": "ATCC25922, 168 h, E. coli ATCC 25922, Day 7, media Fresh from Powder, room temperature, N = 6", "result": 0.12, "unit": "µg/mL"}, {"measurement": "MIC", "setting": "ATCC25922, 336 h, E. coli ATCC 25922, Day 14, Pre-prepared media, room temperature, N = 6", "result": "0.12 to 0.25", "unit": "µg/mL"}, {"measurement": "MIC", "setting": "ATCC25922, 336 h, E. coli ATCC 25922, Day 14, media Fresh from Powder 2° C., N = 6", "result": "0.12 to 0.25", "unit": "µg/mL"}, {"measurement": "MIC", "setting": "ATCC25922, 336 h, E. coli ATCC 25922, Day 14, media Fresh from Powder, room temperature, N = 6", "result": "0.12 to 0.25", "unit": "µg/mL"}, {"measurement": "MIC", "setting": "ATCC25922, 336 h, read-out: Minimal Inhibitory Concentration, E. coli ATCC 25922, media Aged Aerobic (2 weeks at RT under room air), N = 4", "result": "0.12 to 0.25", "unit": "µg/mL"}, {"measurement": "MIC", "setting": "ATCC25922, 504 h, E. coli ATCC 25922, Day 21, media Fresh from Powder 2° C., N = 6", "result": 0.25, "unit": "µg/mL"}, {"measurement": "MIC", "setting": "ATCC25922, 504 h, E. coli ATCC 25922, Day 21, media Fresh from Powder, room temperature, N = 6", "result": "0.12 to 0.25", "unit": "µg/mL"}, {"measurement": "MIC", "setting": "ATCC25922, 672 h, E. coli ATCC 25922, Day 28, Pre-prepared media, room temperature, N = 6", "result": "0.12 to 0.25", "unit": "µg/mL"}, {"measurement": "MIC", "setting": "ATCC25922, 672 h, E. coli ATCC 25922, Day 28, media Fresh from Powder 2° C., N = 6", "result": 0.12, "unit": "µg/mL"}, {"measurement": "MIC", "setting": "ATCC25922, 672 h, E. coli ATCC 25922, Day 28, media Fresh from Powder, room temperature, N = 6", "result": "0.12 to 0.25", "unit": "µg/mL"}, {"measurement": "MIC", "setting": "ATCC25922, read-out: Minimal Inhibitory Concentration (modal value), E. coli ATCC 25922, Aged Media + Oxyrase, N = 8", "result": 0.12, "unit": "µg/mL"}, {"measurement": "MIC", "setting": "ATCC25922, read-out: Minimal Inhibitory Concentration (modal value), E. coli ATCC 25922, Aged media, N = 8", "result": 0.25, "unit": "µg/mL"}, {"measurement": "MIC", "setting": "ATCC25922, read-out: Minimal Inhibitory Concentration (modal value), E. coli ATCC 25922, Fresh Media + Oxyrase, N = 8", "result": 0.12, "unit": "µg/mL"}, {"measurement": "MIC", "setting": "ATCC25922, read-out: Minimal Inhibitory Concentration (modal value), E. coli ATCC 25922, Freshly Prepared Media, N = 8", "result": 0.12, "unit": "µg/mL"}, {"measurement": "MIC", "setting": "ATCC25922, read-out: Minimal Inhibitory Concentration, E. coli ATCC 25922, 2% Oxyrase", "result": 0.03, "unit": "µg/mL"}, {"measurement": "MIC", "setting": "ATCC25922, read-out: Minimal Inhibitory Concentration, E. coli ATCC 25922, Aged Media + Oxyrase, N = 8", "result": "0.12 to 0.25", "unit": "µg/mL"}, {"measurement": "MIC", "setting": "ATCC25922, read-out: Minimal Inhibitory Concentration, E. coli ATCC 25922, Aged media, N = 8", "result": "0.25 to 0.5", "unit": "µg/mL"}, {"measurement": "MIC", "setting": "ATCC25922, read-out: Minimal Inhibitory Concentration, E. coli ATCC 25922, Commercially Prepared media, N = 4", "result": "0.12 to 0.25", "unit": "µg/mL"}, {"measurement": "MIC", "setting": "ATCC25922, read-out: Minimal Inhibitory Concentration, E. coli ATCC 25922, Fresh Media + Oxyrase, N = 8", "result": "0.06 to 0.12", "unit": "µg/mL"}, {"measurement": "MIC", "setting": "ATCC25922, read-out: Minimal Inhibitory Concentration, E. coli ATCC 25922, Freshly Prepared Media, N = 8", "result": "0.12 to 0.25", "unit": "µg/mL"}, {"measurement": "MIC", "setting": "ATCC25922, read-out: Minimal Inhibitory Concentration, E. coli ATCC 25922, Freshly Prepared media, N = 4", "result": 0.03, "unit": "µg/mL"}, {"measurement": "MIC", "setting": "ATCC25922, read-out: Minimal Inhibitory Concentration, E. coli ATCC 25922, MHB II + 0.05% Catalase", "result": 0.5, "unit": "µg/mL"}, {"measurement": "MIC", "setting": "ATCC25922, read-out: Minimal Inhibitory Concentration, E. coli ATCC 25922, MHB II + 0.05% L-ascorbic Acid", "result": 2, "unit": "µg/mL"}, {"measurement": "MIC", "setting": "ATCC25922, read-out: Minimal Inhibitory Concentration, E. coli ATCC 25922, MHB II + 0.05% L-cysteine", "result": 0.5, "unit": "µg/mL"}, {"measurement": "MIC", "setting": "ATCC25922, read-out: Minimal Inhibitory Concentration, E. coli ATCC 25922, MHB II + 0.05% Sodium Pyruvate", "result": 0.12, "unit": "µg/mL"}, {"measurement": "MIC", "setting": "ATCC25922, read-out: Minimal Inhibitory Concentration, E. coli ATCC 25922, MHB II + 0.05% Thioglycolate", "result": 0.12, "unit": "µg/mL"}, {"measurement": "MIC", "setting": "ATCC25922, read-out: Minimal Inhibitory Concentration, E. coli ATCC 25922, MHB II + 2% Oxyrase", "result": 0.06, "unit": "µg/mL"}, {"measurement": "MIC", "setting": "ATCC25922, read-out: Minimal Inhibitory Concentration, E. coli ATCC 25922, Mueller Hinton Broth II (Fresh)", "result": "0.06 to 0.25", "unit": "µg/mL"}, {"measurement": "MIC", "setting": "ATCC25922, read-out: Minimal Inhibitory Concentration, E. coli ATCC 25922, Mueller Hinton Broth II (MHB II)", "result": "0.12 to 0.25", "unit": "µg/mL"}, {"measurement": "MIC", "setting": "ATCC25922, read-out: Minimal Inhibitory Concentration, E. coli ATCC 25922, No Oxyrase", "result": 0.12, "unit": "µg/mL"}, {"measurement": "MIC", "setting": "ATCC25922, read-out: Minimal Inhibitory Concentration, E. coli ATCC 25922, media Aged Anaerobic, N = 4", "result": "0.03 to 0.06", "unit": "µg/mL"}, {"measurement": "Number of Occurrences of MIC 0.06 ug/ml", "setting": "[1]", "result": 130}, {"measurement": "Number of Occurrences of MIC 0.12 ug/ml", "setting": "[1]", "result": 103}, {"measurement": "Number of Occurrences of MIC 0.25 ug/ml", "setting": "[1]", "result": 5}, {"measurement": "Number of Occurrences of MIC 1 ug/ml", "setting": "[1]", "result": 2}, {"measurement": "Number of Occurrences of MIC 0.12 ug/ml", "setting": "[2]", "result": 24}, {"measurement": "Number of Occurrences of MIC 0.25 ug/ml", "setting": "[2]", "result": 210}, {"measurement": "Number of Occurrences of MIC 0.5 ug/ml", "setting": "[2]", "result": 23}, {"measurement": "Number of Occurrences of MIC 1 ug/ml", "setting": "[2]", "result": 58}, {"measurement": "Number of Occurrences of MIC 2 ug/ml", "setting": "[2]", "result": 4}, {"measurement": "Number of Occurrences of MIC 4 ug/ml", "setting": "[2]", "result": 1}, {"measurement": "Number of Occurrences of MIC 0.03 ug/ml", "setting": "[3]", "result": 3}, {"measurement": "Number of Occurrences of MIC 0.06 ug/ml", "setting": "[3]", "result": 13}, {"measurement": "Number of Occurrences of MIC 0.12 ug/ml", "setting": "[3]", "result": 14}, {"measurement": "Number of Occurrences of MIC 0.25 ug/ml", "setting": "[3]", "result": 3}, {"measurement": "Number of Occurrences of MIC 0.06 ug/ml", "setting": "[4]", "result": 1}, {"measurement": "Number of Occurrences of MIC 0.12 ug/ml", "setting": "[4]", "result": 15}, {"measurement": "Number of Occurrences of MIC 0.25 ug/ml", "setting": "[4]", "result": 47}, {"measurement": "Number of Occurrences of MIC 0.5 ug/ml", "setting": "[4]", "result": 27}]}
